Assay results: PMC7225226, “Fluorescence labeling of a NaV1.7-targeted peptide for near-infrared nerve visualization” (EJNMMI Research, 2020)
Several values for one entry are separate records, joined by “and”; a condition that tells them apart may be missing. Equal entries are not always repeated.

Tests used:
hNaV1.1 = molecular target: T1, hNaV1.1 (Homo sapiens, UniProt P35498); assay: Whole-cell patch-clamp, HEK293 cells stably expressing hNaV1.1; assay type: cell-based; details: QPatch 16x automated whole-cell patch-clamp, holding potential -60 mV, five concentrations (2 nM to 10 μM), 0.1% BSA, pH 7.4, ~22 °C; each point average of 3–11 cells
T1 construct: host or cells: HEK293
Protocol: (§1) HEK293 cells stably expressing the human NaV channel β1 subunit (hNaVβ1) in combination with the α subunit hNaV1.1, hNaV1.2, hNaV1.3, hNaV1.4, hNaV1.5, hNaV1.6, or hNaV1.7 (Scottish Biomedical, Glasgow, UK) were cultured in DMEM/F-12 media (1:1), supplemented with 10% fetal bovine serum, […] geneticin, and […] non-essential amino acids (all reagents from Invitrogen) at 37 °C and in 5% CO2.
(§2) Whole-cell patch-clamp experiments were performed at room temperature using a QPatch 16x automated electrophysiology platform (Sophion Bioscience, Denmark) using 16-channel planar patch-chip plates (QPlates) with a patch-hole diameter of 1 μm and resistance of 2 MΩ. Whole-cell currents were filtered at 5 kHz (8-pole Bessel) and digitized at 25 kHz. A P4 online leak-subtraction protocol was used with non-leak-subtracted currents acquired in parallel. The extracellular solution was 2 mM CaCl2, 1 mM MgCl2, 10 mM HEPES, 4 mM KCl, and 145 mM NaCl at pH 7.4, and the intracellular solution was 140 mM CsF, 1 mM/5 mM EGTA/CsOH, 10 mM HEPES, and 10 mM NaCl at pH 7.3. Hs1a-FL were dissolved in extracellular solution with 0.1% bovine serum albumin (BSA). Concentration-response data were obtained using five concentrations of peptide (2 nM to 10 μM). […] IC50 values were determined from non-linear regression of concentration-response data using GraphPad Prism.

hNaV1.2 = molecular target: T2, hNaV1.2 (Homo sapiens, UniProt Q99250); assay: Whole-cell patch-clamp, HEK293 cells stably expressing hNaV1.2; assay type: cell-based; details: QPatch 16x automated whole-cell patch-clamp, holding potential -65 mV, five concentrations (2 nM to 10 μM), 0.1% BSA, pH 7.4, ~22 °C; each point average of 3–11 cells
T2 construct: host or cells: HEK293
Protocol: as §1, §2

hNaV1.3 = molecular target: T3, hNaV1.3 (Homo sapiens, UniProt Q9NY46); assay: Whole-cell patch-clamp, HEK293 cells stably expressing hNaV1.3; assay type: cell-based; details: QPatch 16x automated whole-cell patch-clamp, holding potential -60 mV, five concentrations (2 nM to 10 μM), 0.1% BSA, pH 7.4, ~22 °C; each point average of 3–11 cells
T3 construct: host or cells: HEK293
Protocol: as §1, §2

hNaV1.4 = molecular target: T4, hNaV1.4 (Homo sapiens, UniProt P35499); assay: Whole-cell patch-clamp, HEK293 cells stably expressing hNaV1.4; assay type: cell-based
T4 construct: host or cells: HEK293
T4 sequence (Q07699 19-218): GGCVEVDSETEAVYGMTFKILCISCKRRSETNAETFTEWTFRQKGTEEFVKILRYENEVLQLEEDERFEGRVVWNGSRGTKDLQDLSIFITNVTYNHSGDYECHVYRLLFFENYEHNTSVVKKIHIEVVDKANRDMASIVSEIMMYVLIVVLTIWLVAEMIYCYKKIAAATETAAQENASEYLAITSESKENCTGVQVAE
T4 sequence (P35499 whole entry): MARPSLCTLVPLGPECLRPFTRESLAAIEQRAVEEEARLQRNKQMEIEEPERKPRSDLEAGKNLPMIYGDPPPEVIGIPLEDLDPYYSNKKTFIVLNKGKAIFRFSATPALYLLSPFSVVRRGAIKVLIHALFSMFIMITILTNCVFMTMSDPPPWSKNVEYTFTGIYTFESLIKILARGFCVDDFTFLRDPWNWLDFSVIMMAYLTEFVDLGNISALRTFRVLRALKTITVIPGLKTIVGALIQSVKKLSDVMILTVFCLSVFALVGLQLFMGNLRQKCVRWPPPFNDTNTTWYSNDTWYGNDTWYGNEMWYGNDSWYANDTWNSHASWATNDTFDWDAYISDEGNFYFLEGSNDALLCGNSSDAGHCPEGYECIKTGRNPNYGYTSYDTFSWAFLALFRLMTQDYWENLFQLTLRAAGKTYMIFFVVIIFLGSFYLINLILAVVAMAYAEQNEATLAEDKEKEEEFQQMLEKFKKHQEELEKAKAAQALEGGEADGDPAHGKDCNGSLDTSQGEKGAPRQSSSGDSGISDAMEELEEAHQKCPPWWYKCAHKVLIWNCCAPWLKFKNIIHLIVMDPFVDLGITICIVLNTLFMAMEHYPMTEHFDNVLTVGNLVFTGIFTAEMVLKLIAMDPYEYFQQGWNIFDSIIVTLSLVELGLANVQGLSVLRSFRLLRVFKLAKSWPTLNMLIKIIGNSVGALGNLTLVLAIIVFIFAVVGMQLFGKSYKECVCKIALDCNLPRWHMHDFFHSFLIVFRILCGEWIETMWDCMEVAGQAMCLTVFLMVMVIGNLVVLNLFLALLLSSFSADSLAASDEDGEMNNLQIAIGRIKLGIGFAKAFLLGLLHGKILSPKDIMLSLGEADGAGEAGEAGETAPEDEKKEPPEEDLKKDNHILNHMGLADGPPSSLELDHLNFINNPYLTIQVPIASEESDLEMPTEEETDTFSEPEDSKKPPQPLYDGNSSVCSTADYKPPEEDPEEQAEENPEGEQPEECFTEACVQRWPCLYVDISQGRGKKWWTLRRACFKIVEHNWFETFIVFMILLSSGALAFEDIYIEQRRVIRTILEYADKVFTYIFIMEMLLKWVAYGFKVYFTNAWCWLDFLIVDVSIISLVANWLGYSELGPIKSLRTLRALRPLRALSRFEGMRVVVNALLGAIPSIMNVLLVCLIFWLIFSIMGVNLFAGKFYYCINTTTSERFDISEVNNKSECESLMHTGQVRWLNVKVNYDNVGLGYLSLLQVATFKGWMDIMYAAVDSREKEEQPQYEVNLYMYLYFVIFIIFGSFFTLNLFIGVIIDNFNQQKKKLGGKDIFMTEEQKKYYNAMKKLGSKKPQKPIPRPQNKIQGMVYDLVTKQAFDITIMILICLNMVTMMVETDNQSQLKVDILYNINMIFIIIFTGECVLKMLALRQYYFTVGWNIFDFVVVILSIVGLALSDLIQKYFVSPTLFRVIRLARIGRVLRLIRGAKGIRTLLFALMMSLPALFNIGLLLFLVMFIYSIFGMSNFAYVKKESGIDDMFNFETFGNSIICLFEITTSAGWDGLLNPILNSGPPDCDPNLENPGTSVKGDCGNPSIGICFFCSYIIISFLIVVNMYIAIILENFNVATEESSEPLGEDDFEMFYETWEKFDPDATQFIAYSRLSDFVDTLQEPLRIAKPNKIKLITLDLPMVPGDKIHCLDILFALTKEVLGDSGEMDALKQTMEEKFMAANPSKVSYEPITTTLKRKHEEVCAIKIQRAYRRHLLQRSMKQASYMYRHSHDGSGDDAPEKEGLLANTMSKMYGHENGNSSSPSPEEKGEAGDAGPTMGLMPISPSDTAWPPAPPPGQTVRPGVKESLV
Protocol: as §1, §2

hNaV1.5 = molecular target: T5, hNaV1.5 (Homo sapiens, UniProt Q14524); assay: Whole-cell patch-clamp, HEK293 cells stably expressing hNaV1.5; assay type: cell-based
T5 construct: host or cells: HEK293
T5 sequence (Q14524 whole entry): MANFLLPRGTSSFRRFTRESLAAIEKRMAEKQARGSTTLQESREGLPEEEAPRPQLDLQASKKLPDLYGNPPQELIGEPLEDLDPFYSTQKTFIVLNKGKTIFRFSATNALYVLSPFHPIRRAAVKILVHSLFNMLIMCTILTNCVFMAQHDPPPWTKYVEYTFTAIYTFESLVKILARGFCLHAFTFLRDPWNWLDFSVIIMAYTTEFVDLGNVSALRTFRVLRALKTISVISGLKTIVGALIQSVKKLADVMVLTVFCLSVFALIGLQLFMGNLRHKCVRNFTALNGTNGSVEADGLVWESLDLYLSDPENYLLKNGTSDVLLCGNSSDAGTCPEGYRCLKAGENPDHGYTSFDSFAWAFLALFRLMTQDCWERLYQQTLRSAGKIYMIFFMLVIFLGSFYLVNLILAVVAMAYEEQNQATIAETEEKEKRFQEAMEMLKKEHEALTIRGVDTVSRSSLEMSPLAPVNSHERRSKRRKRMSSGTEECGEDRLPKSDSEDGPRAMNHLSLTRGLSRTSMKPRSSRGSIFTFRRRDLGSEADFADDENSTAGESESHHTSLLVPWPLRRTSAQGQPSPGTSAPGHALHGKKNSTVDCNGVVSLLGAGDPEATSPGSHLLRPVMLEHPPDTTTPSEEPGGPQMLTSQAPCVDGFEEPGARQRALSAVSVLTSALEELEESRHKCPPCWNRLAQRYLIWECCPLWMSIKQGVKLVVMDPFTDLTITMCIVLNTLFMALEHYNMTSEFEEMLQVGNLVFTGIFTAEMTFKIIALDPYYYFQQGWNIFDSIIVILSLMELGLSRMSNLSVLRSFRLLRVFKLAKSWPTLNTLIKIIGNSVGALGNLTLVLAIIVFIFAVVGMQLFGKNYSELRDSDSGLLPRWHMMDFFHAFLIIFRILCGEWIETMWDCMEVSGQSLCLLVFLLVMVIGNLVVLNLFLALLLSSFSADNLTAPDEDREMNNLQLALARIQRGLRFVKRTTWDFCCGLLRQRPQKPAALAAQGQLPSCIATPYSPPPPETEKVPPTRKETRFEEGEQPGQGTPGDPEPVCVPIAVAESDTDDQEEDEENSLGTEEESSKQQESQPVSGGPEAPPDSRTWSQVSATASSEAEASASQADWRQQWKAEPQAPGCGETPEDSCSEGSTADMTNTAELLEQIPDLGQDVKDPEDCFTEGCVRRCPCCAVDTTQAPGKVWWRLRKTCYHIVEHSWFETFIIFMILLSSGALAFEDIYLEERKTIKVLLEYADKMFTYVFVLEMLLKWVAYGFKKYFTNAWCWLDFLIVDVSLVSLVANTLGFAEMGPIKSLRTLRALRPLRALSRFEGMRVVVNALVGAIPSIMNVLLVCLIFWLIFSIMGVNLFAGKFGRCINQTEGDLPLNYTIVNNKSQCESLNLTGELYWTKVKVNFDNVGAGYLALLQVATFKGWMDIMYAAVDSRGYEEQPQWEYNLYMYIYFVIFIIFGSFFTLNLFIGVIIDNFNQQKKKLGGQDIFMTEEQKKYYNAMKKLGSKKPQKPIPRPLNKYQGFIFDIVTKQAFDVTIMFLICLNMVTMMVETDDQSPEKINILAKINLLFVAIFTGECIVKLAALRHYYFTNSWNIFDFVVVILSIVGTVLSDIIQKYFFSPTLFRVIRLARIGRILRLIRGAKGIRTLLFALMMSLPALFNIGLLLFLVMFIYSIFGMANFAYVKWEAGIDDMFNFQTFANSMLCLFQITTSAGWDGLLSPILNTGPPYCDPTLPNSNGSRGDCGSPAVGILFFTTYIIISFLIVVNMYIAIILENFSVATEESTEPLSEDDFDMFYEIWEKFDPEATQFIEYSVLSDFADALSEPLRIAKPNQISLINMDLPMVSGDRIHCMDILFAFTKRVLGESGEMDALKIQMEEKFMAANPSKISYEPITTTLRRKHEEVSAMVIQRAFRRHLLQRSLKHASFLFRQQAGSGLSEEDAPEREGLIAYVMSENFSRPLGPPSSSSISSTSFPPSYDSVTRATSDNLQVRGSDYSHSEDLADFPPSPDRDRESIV
Protocol: as §1, §2

neuronal sodium channels = assay: Affinity for neuronal sodium channels (summary statement); assay type: cell-based, human; details: automated patch-clamp, HEK293 cells
Protocol: as §1, §2

[1] = tested on: mouse sciatic nerve (NaV1.7); assay: Confocal microscopy of sciatic nerve after intravenous injection; assay type: in vivo; details: i.v. Hs1a-FL 4 nmol (45 μM in 100 μL PBS), with or without Hs1a 12 nmol (120 μM, 3-fold molar excess); 30 min post-injection; athymic nude mice
Protocol: (§3) Female athymic nude mice (4–8 weeks old, athymic-nude (outbred) (stock#:088; Envigo, USA) were allowed to acclimatize at the MSKCC vivarium for 1 week with ad libitum food and water prior to the experimental procedure. For imaging experiments, animals were sacrificed 30 min post-tail vein injection of Hs1a-FL, Hs1a/Hs1a-FL, or PBS. All animal experiments were performed in accordance with institutional guidelines and approved by the MSKCC Institutional Animal Care and Use Committee, following the NIH guidelines for animal welfare.
(§4) For the confocal microscopy experiments, 5 μm cryosections of sciatic nerve tissues embedded in optimal cutting temperature compound (OCT) were used to determine the distribution and localization of Hs1a-FL from mice previously injected with the fluorescent agent Hs1a-FL (4 nmol, 45 μM of Hs1a-FL in 100 μL of PBS), the blocking solution Hs1a/Hs1a-FL (Hs1a-FL, 45 μM, 4 nmol and Hs1a 120 μM, 12 nmol in 100 μL PBS), or 100 μL of PBS. These resected nerves were incubated with Hoechst 33342 (20 μM, 1 nmol in 50 μL of PBS) to counterstain nuclei, which were subsequently embedded in Mowiol mounting medium. Fresh tissues were counterstained with Hoechst 33342 (20 μM, 1 nmol in 50 μL of PBS) and samples placed directly on a microscope slide for detection of the fluorescence signal of the fluorescent peptide.

mouse sciatic nerve = assay: Epifluorescence imaging of resected sciatic nerves after intravenous injection; assay type: in vivo; details: 30 min post-injection
Protocol: as §3
(§5) One group of animals was intravenously injected with Hs1a-FL (4 nmol, 45 μM of Hs1a-FL in 100 μL of PBS, n = 3). A second group of animals was injected with Hs1a and Hs1a-FL (Hs1a-FL, 45 μM, 4 nmol and Hs1a, 120 μM, 12 nmol in 100 μL PBS, n = 3) or PBS (n = 3). Animals were sacrificed 30 min post-injection and epifluorescence images obtained. Epifluorescence images of the right sciatic nerve (RSN) and left sciatic nerve (LSN) were obtained in situ from all the mice in the study. Epifluorescence images of the biodistribution included RSN, LSN, muscle, heart, kidney, liver, and brain and were acquired with an IVIS Spectrum imaging system (PerkinElmer) using a predetermined filter set (excitation = 710/45 nm, emission = 800–820 nm). […]
(§6) Statistical analyses were performed using GraphPad Prism 8. […] All p values were calculated using an unpaired t test. […]

[2] = Ex vivo epifluorescence biodistribution in organs; set-up: species or system mouse; details: 30 min post-injection
Protocol: as §3
One group of animals was intravenously injected with Hs1a-FL (4 nmol, 45 μM of Hs1a-FL in 100 μL of PBS, n = 3). A second group of animals was injected with Hs1a and Hs1a-FL (Hs1a-FL, 45 μM, 4 nmol and Hs1a, 120 μM, 12 nmol in 100 μL PBS, n = 3) or PBS (n = 3). Animals were sacrificed 30 min post-injection and epifluorescence images obtained. Epifluorescence images of the right sciatic nerve (RSN) and left sciatic nerve (LSN) were obtained in situ from all the mice in the study. Epifluorescence images of the biodistribution included RSN, LSN, muscle, heart, kidney, liver, and brain and were acquired with an IVIS Spectrum imaging system (PerkinElmer) using a predetermined filter set (excitation = 710/45 nm, emission = 800–820 nm). Autofluorescence was removed through spectral unmixing. Semiquantitative analysis of the Hs1a-FL signal was conducted by measuring the average radiant efficiency (in units of [p/s/cm^2/sr]/[μW/cm^2]) in regions of interest (ROIs) that were placed on all resected nerves and as well in all organs from the biodistribution under white light guidance.
Statistical analyses were performed using GraphPad Prism 8. Unless otherwise stated, data points represent mean values, and error bars represent standard deviations of biological replicates. All p values were calculated using an unpaired t test. Statistical significance was considered for p values < 0.05 and as follows: ns = not significant, *p < 0.05, **p < 0.01, ***p < 0.001.

nerve and muscle = assay: Nerve-to-muscle comparison, epifluorescence; assay type: in vivo, mouse
Protocol: as §3, §5, §6

NaV1.7 = assay: Binding to NaV1.7 in vivo post-intravenous injection, blocked by excess unlabeled Hs1a; set-up: species or system mouse
Protocol: as §3
as §4, with “peptide. […]” for “peptide.”

[3] = at concentrations up to 3 μM, automated patch-clamp

Row | Molecule | IC50 (hNaV1.1) [nM] | IC50 (hNaV1.2) [nM] | IC50 (hNaV1.3) [nM] | IC50 (hNaV1.4; QPatch 16x automated whole-cell patch-clamp, holding potential -75 mV, five concentrations (2 nM to 10 μM), 0.1% BSA, pH 7.4, ~22 °C, each point average of 3–11 cells) [nM] | inhibition of NaV1.4 (hNaV1.4; [3]) | IC50 (hNaV1.5; QPatch 16x automated whole-cell patch-clamp, holding potential -105 mV, five concentrations (2 nM to 10 μM), 0.1% BSA, pH 7.4, ~22 °C, each point average of 3–11 cells) [nM] | inhibition of NaV1.5 (hNaV1.5; [3]) | affinity for neuronal sodium channels (neuronal sodium channels; ~22 °C) | IC50 range for neuronal NaV channels (neuronal sodium channels; NaV1.1, NaV1.2, NaV1.3, NaV1.6, NaV1.7) | presence of Hs1a-FL signal in sciatic nerve by confocal microscopy [1] | visibility / accumulation in resected sciatic nerves (mouse sciatic nerve; i.v. 4 nmol Hs1a-FL alone, epifluorescence) | radiant efficiency of resected sciatic nerves (mouse sciatic nerve; i.v. Hs1a-FL 4 nmol (45 μM in 100 μL PBS), with or without Hs1a 12 nmol (120 μM), IVIS, ex 710/45 nm, em 800–820 nm, mean ± SD, n = 3 mice, Hs1a-FL vs co-injection unpaired t test p < 0.001) | radiant efficiency, brain ([2]; i.v. 4 nmol in 100 μL PBS, IVIS, ex 710/45 nm, em 800–820 nm, mean ± SD, n = 3, PBS group 0.001 ± 0.0005 × 10^7) | radiant efficiency, liver ([2]; i.v. 4 nmol in 100 μL PBS, IVIS, ex 710/45 nm, em 800–820 nm, mean ± SD, n = 3, PBS group 0.002 ± 0.001 × 10^7) | radiant efficiency, kidney ([2]; i.v. 4 nmol in 100 μL PBS, IVIS, ex 710/45 nm, em 800–820 nm, mean ± SD, n = 3, PBS group 0.005 ± 0.004 × 10^7) | liver accumulation ([2]; mouse, i.v. 4 nmol) | nerve-to-muscle contrast (nerve and muscle; epifluorescence visualization of sciatic mouse nerves, abstract statement) | nerve-to-muscle ratio (nerve and muscle; i.v. Hs1a-FL 4 nmol with or without Hs1a 12 nmol (block), 30 min post-injection, epifluorescence, mean ± SD, PBS 2.90 ± 2.76) | binding to NaV1.7 on the surface of human and mouse nerves (NaV1.7; abstract statement) | binding to NaV1.7 channels in vivo (NaV1.7; post-intravenous injection, mouse, blocked by excess dose of unlabeled Hs1a)
1 | CC(C)C[C@H](NC(=O)[C@H](CCCCN)NC(=O)CNC(=O)[C@H](CCCCN)NC(=O)[C@@H]1CSSC[C@@H]2NC(=O)[C@H](CCCCN)NC(=O)[C@H](CC(=O)O)NC(=O)[C@H](CC(N)=O)NC(=O)[C@H](CCCCN)NC(=O)[C@@H]3CCCN3C(=O)[C@H](CC(N)=O)NC(=O)[C@@H]3CSSC[C@H](NC(=O)[C@H](C(C)C)NC(=O)[C@H](CC(C)C)NC(=O)[C@H](CC(N)=O)NC(=O)[C@H](C)NC(=O)[C@H](CSSC[C@H](NC(=O)[C@H](CC(=O)O)NC(=O)[C@H](CC(N)=O)NC(=O)CN)C(=O)N[C@@H](CC(C)C)C(=O)NCC(=O)N[C@@H](Cc4ccccc4)C(=O)N[C@@H](Cc4c[nH]c5ccccc45)C(=O)N[C@@H](CO)C(=O)N[C@@H](C)C(=O)N3)NC2=O)C(=O)N[C@@H](CO)C(=O)N[C@@H](CO)C(=O)N[C@@H](CCCCN)C(=O)N[C@@H](Cc2c[nH]cn2)C(=O)N[C@@H](CCCCN)C(=O)N[C@@H](Cc2c[nH]c3ccccc23)C(=O)N1)C(=O)O [Hs1a] | 19.4 | 82.2 | 107 | > 3000 | did not inhibit | > 3000 | did not inhibit | low nanomolar affinity | low nanomolar range | – | – | – | – | – | – | – | – | – | – | –
2 | Cy7.5@GNDCLGFWSACNPKNDKCCANLVCSSKHKWCKGKL (disulfide) [Hs1a-FL, NIR-labeled version of Hs1a, Hs1a conjugated to Cy7.5 dye] | – | – | – | – | – | – | – | – | – | confirmed the presence of Hs1a-FL signal | clearly visible | 1.6 ± 0.3 × 10^5 [p/s/cm^2/sr]/[μW/cm^2] | 0.2 ± 0.1 × 10^7 [p/s/cm^2/sr]/[μW/cm^2] | 3.0 ± 2.0 × 10^7 [p/s/cm^2/sr]/[μW/cm^2] | 1.4 ± 1.1 × 10^7 [p/s/cm^2/sr]/[μW/cm^2] | high liver accumulation | favorable nerve-to-muscle contrast | 4.83 ± 8.73 and ~ 4 | specific and stable binding | specifically bind to NaV1.7 channels in vivo
